Reference: the C3SDB collision cross section collection

What was measured:
[1] = [M+H]+; instrument: TW; Major Mix IMS/Tof Calibration Kit (Waters)
[2] = instrument: DT, stepped-field

| collision cross section (N2) [1] [Å²] | collision cross section (N2) ([2]; [M+H]+) [Å²] | collision cross section (N2) ([2]; [M+Na]+) [Å²] | Compound | other results |
| --- | --- | --- | --- | --- |
| 184.3 |  |  | CCN1CCCC1CNC(=O)c1cc(S(N)(=O)=O)ccc1OC (configuration not stated) [Sulpiride] |  |
| 175.5 |  |  | Cc1cc2c(s1)Nc1ccccc1N=C2N1CCN(C)CC1 [Olanzapine] |  |
| 177.4 |  |  | C=C[C@H]1C[N@@]2CC[C@H]1C[C@H]2[C@H](O)c1ccnc2ccc(OC)cc12 [Quinine] |  |
| 165.9 |  |  | N=C(N)Nc1nc(CSCCC(=N)NS(N)(=O)=O)cs1 [Famotidine] |  |
| 162.8 |  |  | CNCCCC1c2ccccc2C=Cc2ccccc21 [Protriptyline] |  |
| 164.5 |  |  | CN1CCN2c3ccccc3Cc3ccccc3C2C1 (configuration not stated) [Mianserin] |  |
| 178.7 |  |  | CNCCC[C@@]1(c2ccc(F)cc2)OCc2cc(C#N)ccc21 [Citalopram-M N-desmethyl] |  |
| 150.4 |  |  | Cc1[nH]c(=O)c(C#N)cc1-c1ccncc1 [Milrinone] |  |
| 161 |  |  | CN1CCN2c3ncccc3Cc3ccccc3C2C1 (configuration not stated) [Mirtazapine] |  |
|  | 299.26 | 299.53 | CCCCCCCCCCCCC=CC[C@@H](O)[C@H](CO[C@@H]1O[C@H](CO)[C@@H](O)C(O)C1O)NC(=O)CC=CCCCCCCCCCCCCCCCCCCCC (some centres not stated) [GlcCer(42:02)] | collision cross section (N2) ([2]; [M+Cl]-): 298.77 Å²; collision cross section (N2) ([2]; [M+H-H2O]+): 296.4 Å²; collision cross section (N2) ([2]; [M+HCOO]-): 301.95 Å² |
|  |  | 291.95 | CCCCCCCCCCCCC=CC[C@@H](O)[C@H](CO[C@@H]1O[C@H](CO)[C@@H](O)C(O)C1O)NC(=O)CCCCCCCCCCCCCCCCCCCC (some centres not stated) [GlcCer(39:01)] |  |
|  |  | 270.97 | CCCCC/C=C\C/C=C\CCCCCCCCCC(=O)O[C@H](COC(=O)CCCCCCC/C=C\CCCCCC)COP(=O)(O)O [PA(36:03)] | collision cross section (N2) ([2]; [M+2Na-H]+): 271.74 Å² |
|  | 272.27 |  | CCCCCCCCCCCCC=CC[C@@H](O)[C@H](CO)NC(=O)CC=CCCCCCCCCCCCCCCCCCC [Cer(40:02)] | collision cross section (N2) ([2]; [M+H-H2O]+): 267.47 Å² |
|  | 261.92 |  | CCCCCCCCCCCCCCCCCC(=O)N[C@@H](CO)[C@H](O)CCCCCCCCCCCCCCC [Cer(36:00)] |  |
|  | 288.22 | 290.25 | CCCCCCCCCCC/C=C\CCCCC(=O)O[C@H](COC(=O)CCCCCCCCCCCCCCCCC)COP(=O)([O-])OCC[N+](C)(C)C [PC(36:01)] | collision cross section (N2) ([2]; [M+2Na-H]+): 292.02 Å²; collision cross section (N2) ([2]; [M+Cl]-): 296.27 Å²; collision cross section (N2) ([2]; [M+HCOO]-): 296.46 Å²; collision cross section (N2) ([2]; [M+K]+): 291.07 Å² |
|  |  |  | CCCCCCCCCCCCCCCCCCCCCCCCCCCCC(=O)N[C@@H](CO[C@@H]1O[C@H](CO)[C@@H](O)C(O)C1O)[C@H](O)CCCCCCCCCCCCCCC (some centres not stated) [GlcCer(47:00)] | collision cross section (N2) ([2]; [M+Na-2H2O]+): 313.61 Å² |
|  | 281.37 | 281.52 | CCCCCCCCCCCCC=CC[C@@H](O)[C@H](CO[C@@H]1O[C@H](CO)[C@@H](O)C(O)C1O)NC(=O)CC=CCCCCCCCCCCCCCC (some centres not stated) [GlcCer(36:02)] |  |
|  |  |  | CCCCC/C=C\C/C=C\CCCCCCCCCC(=O)O[C@H](COC(=O)CCCCCCCCCCCCCCCCC)COP(=O)([O-])OCC[N+](C)(C)C [PC(38:02)] | collision cross section (N2) ([2]; [M+Cl]-): 300.55 Å² |
|  | 273.34 | 277.57 | CCCCC/C=C\C/C=C\CCCCCCCCCC(=O)O[C@H](COC(=O)CCCCCCC/C=C\CCCCCC)COP(=O)(O)OCCN [PE(36:03)] | collision cross section (N2) ([2]; [M+2Na-H]+): 279.42 Å²; collision cross section (N2) ([2]; [M+K]+): 278.94 Å²; collision cross section (N2) ([2]; [M-H]-): 269.84 Å² |
|  | 302.3 | 303.14 | CCCCCCCCCCCCCCCCCCCCCCCC(=O)N[C@@H](CO[C@@H]1O[C@H](CO)[C@@H](O)C(O)C1O)[C@H](O)CCCCCCCCCCCCCCC (some centres not stated) [GlcCer(42:00)] |  |
|  |  |  | CC/C=C\C/C=C\C/C=C\C/C=C\C/C=C\CCCC(=O)O[C@H](COC(=O)CCCCCC/C=C\C/C=C\C/C=C\CCCCC)COP(=O)(O)OC[C@H](N)C(=O)O [PS(40:08)] | collision cross section (N2) ([2]; [M+2Na-H]+): 287.97 Å² |
|  | 301.86 | 303.25 | CCCCCCCCCC/C=C\CCCCCCCCCC(=O)O[C@H](COC(=O)CCCCCCCCCCCCCCCCCCC)COP(=O)(O)OC[C@H](N)C(=O)O [PS(42:01)] |  |
|  |  | 279.26 | CCCC/C=C\CCCCCCCC(=O)OC[C@H](COP(=O)(O)OCCN)OC(=O)CCCCCCCCCCCCCCCCCCCC [PE(35:01)] | collision cross section (N2) ([2]; [M+2Na-H]+): 279.57 Å² |
|  |  |  | CCCCC/C=C\C/C=C\C/C=C\C/C=C\CCCCCC(=O)OC[C@H](COP(=O)(O)OC[C@H](N)C(=O)O)OC(=O)CCCCCCCCCCCCC [PS(36:04)] | collision cross section (N2) ([2]; [M+2Na-H]+): 281.53 Å² |
|  | 283.39 |  | CCCCCCCC/C=C\CCCCCCCC(=O)O[C@H](COC(=O)CCCCCCCCCCCCCCCCC)COP(=O)(O)OC[C@H](N)C(=O)O [PS(36:01)] | collision cross section (N2) ([2]; [M+2Na-H]+): 287.95 Å²; collision cross section (N2) ([2]; [M+K]+): 287.48 Å²; collision cross section (N2) ([2]; [M-H]-): 282.92 Å² |
|  | 286.24 | 285.86 | CCCCCCCCCCCCC=CC[C@@H](O)[C@H](COP(=O)([O-])OCC[N+](C)(C)C)NC(=O)CCCCCCCCCCCCCCCCC [SM(36:01)] | collision cross section (N2) ([2]; [M+Cl]-): 288.69 Å²; collision cross section (N2) ([2]; [M+HCOO]-): 290.34 Å²; collision cross section (N2) ([2]; [M+K]+): 288.38 Å²; collision cross section (N2) ([2]; [M+Na-H2O]+): 280.09 Å² |
|  |  |  | CCCCC/C=C\C/C=C\C/C=C\C/C=C\CCCCCC(=O)OC[C@H](COP(=O)(O)OC[C@H](N)C(=O)O)OC(=O)CCCCCCCCC/C=C\CCCCCCCCCC [PS(44:05)] | collision cross section (N2) ([2]; [M+2Na-H]+): 306.87 Å² |
|  | 287.73 |  | CCCCCC/C=C\CCCCCCCC(=O)OC[C@H](COP(=O)(O)OC[C@H](N)C(=O)O)OC(=O)CCCCCCCCC/C=C\CCCCCCCCCC [PS(38:02)] | collision cross section (N2) ([2]; [M+2Na-H]+): 292.46 Å²; collision cross section (N2) ([2]; [M-H]-): 287.56 Å² |
|  | 280.06 | 278.77 | CCCCCCCCCCCCC=CC[C@@H](O)[C@H](COP(=O)([O-])OCC[N+](C)(C)C)NC(=O)CCCCCCCCCCCCCCC [SM(34:01)] | collision cross section (N2) ([2]; [M+Cl]-): 284.26 Å²; collision cross section (N2) ([2]; [M+HCOO]-): 284.66 Å² |

| Compound | collision cross section (N2) [1] [Å²] | collision cross section (N2) ([2]; [M+H]+) [Å²] | collision cross section (N2) ([2]; [M+Na]+) [Å²] | other results |
| --- | --- | --- | --- | --- |
| Oc1ccc2c3c1OC1C(O)C=CC4C(C2)NCCC341 (configuration not stated) [Morphine-M Nor] | 161.5 |  |  |  |
| C[C@]12CC[C@H]3[C@@H](CCC4=CC(=O)CC[C@@H]43)[C@@H]1CC[C@@H]2O [Nandrolone] | 167.5 |  |  |  |
| Cc1ccccc1-n1c(C)nc2ccccc2c1=O [Methaqualone] | 155 |  |  |  |
| CN1CCN(C(=O)OC2c3nccnc3C(=O)N2c2ccc(Cl)cn2)CC1 (configuration not stated) [Zopiclone] | 188.5 |  |  |  |
| CN1[C@@H]2C[C@@H](OC(=O)[C@H](CO)c3ccccc3)C[C@H]1[C@@H]1O[C@@H]12 [Scopolamine] | 171.1 |  |  |  |
| CCN(CC)CCOCCOC(=O)C1(c2ccccc2)CCCC1 [Pentoxyverine] | 175.5 |  |  |  |
